Measurements as given in article PMC6366416, “Synthesis and in vitro anticancer activity of certain novel 1-(2-methyl-6-arylpyridin-3-yl)-3-phenylureas as apoptosis-inducing agents” (Journal of Enzyme Inhibition and Medicinal Chemistry, 2019).

What was measured:
Assay in all cases: NCI one-dose SRB growth inhibition
Assay type in all cases: cell-based
786-0 = details: Homo sapiens, Renal Cancer, 48 h, read-out: GI% 786-0
Outline: (§1)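 Compounds were tested by the NCI Developmental Therapeutics Program protocol within a panel covering nine cancer types. Cells were exposed to drug for 48 h, and growth and viability were assessed by sulforhodamine B staining.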

A549/ATCC = details: Homo sapiens, A549, 48 h, Non-Small Cell Lung Cancer, read-out: GI% A549/ATCC
Outline: as §1

BT-549 = details: Homo sapiens, Breast Cancer, 48 h, read-out: GI% BT-549
Outline: as §1

CCRF-CEM = details: Homo sapiens, Leukemia, 48 h, read-out: GI% CCRF-CEM
Outline: as §1

COLO 205 = details: Homo sapiens, Colon Cancer, 48 h, read-out: GI% COLO 205
Outline: as §1

DU-145 = details: Homo sapiens, Prostate, 48 h, read-out: GI% DU-145
Outline: as §1

EKVX = details: Homo sapiens, Non-Small Cell Lung Cancer, 48 h, read-out: GI% EKVX
Outline: as §1

HCC-2998 = details: Homo sapiens, Colon Cancer, 48 h, read-out: GI% HCC-2998
Outline: as §1

HCT-15 = details: Homo sapiens, HCT-15, 48 h, Colon Cancer, read-out: GI% HCT-15
Outline: as §1

HOP-62 = details: Homo sapiens, Non-Small Cell Lung Cancer, 48 h, read-out: GI% HOP-62
Outline: as §1

HT29 = details: Homo sapiens, HT-29, 48 h, Colon Cancer, read-out: GI% HT29
Outline: as §1

LOX IMVI = details: Homo sapiens, Melanoma, 48 h, read-out: GI% LOX IMVI
Outline: as §1

MCF7 = details: Homo sapiens, Breast Cancer, 48 h, read-out: GI% MCF7
Outline: as §1

MDA-MB-231 = details: Homo sapiens, Breast Cancer, 48 h, read-out: GI% MDA-MB-231
Outline: as §1

MDA-MB-435 = details: Homo sapiens, Melanoma, 48 h, read-out: GI% MDA-MB-435
Outline: as §1

NCI-H322M = details: Homo sapiens, Non-Small Cell Lung Cancer, 48 h, read-out: GI% NCI-H322M
Outline: as §1

OVCAR-3 = details: Homo sapiens, OVCAR-3, 48 h, Ovarian Cancer, read-out: GI% OVCAR-3
Outline: as §1

OVCAR-4 = details: Homo sapiens, Ovarian Cancer, 48 h, read-out: GI% OVCAR-4
Outline: as §1

OVCAR-5 = details: Homo sapiens, Ovarian Cancer, 48 h, read-out: GI% OVCAR-5
Outline: as §1

OVCAR-8 = details: Homo sapiens, Ovarian Cancer, 48 h, read-out: GI% OVCAR-8
Outline: as §1

RPMI-8226 = details: Homo sapiens, RPMI-8226, 48 h, Leukemia, read-out: GI% RPMI-8226
Outline: as §1

RXF 393 = details: Homo sapiens, Renal Cancer, 48 h, read-out: GI% RXF 393
Outline: as §1

SF-268 = details: Homo sapiens, CNS Cancer, 48 h, read-out: GI% SF-268
Outline: as §1

SF-295 = details: Homo sapiens, CNS Cancer, 48 h, read-out: GI% SF-295
Outline: as §1

SK-OV-3 = details: Homo sapiens, Ovarian Cancer, 48 h, read-out: GI% SK-OV-3
Outline: as §1

SN12C = details: Homo sapiens, Renal Cancer, 48 h, read-out: GI% SN12C
Outline: as §1

SNB-75 = details: Homo sapiens, CNS Cancer, 48 h, read-out: GI% SNB-75
Outline: as §1

SR = details: Homo sapiens, 48 h, Leukemia, read-out: GI% SR
Outline: as §1

T-47D = details: Homo sapiens, T47D, 48 h, Breast Cancer, read-out: GI% T-47D
Outline: as §1

TK-10 = details: Homo sapiens, Renal Cancer, 48 h, read-out: GI% TK-10
Outline: as §1

U251 = details: Homo sapiens, U-251, CNS Cancer, 48 h, read-out: GI% U251
Outline: as §1

UACC-62 = details: Homo sapiens, UACC-62, 48 h, Melanoma, read-out: GI% UACC-62
Outline: as §1

UO-31 = details: Homo sapiens, Renal Cancer, 48 h, read-out: GI% UO-31
Outline: as §1

Compound	inhibition at 10 µM (786-0)	inhibition at 10 µM (A549/ATCC)	inhibition at 10 µM (BT-549)	inhibition at 10 µM (CCRF-CEM)	inhibition at 10 µM (COLO 205)	inhibition at 10 µM (DU-145)	inhibition at 10 µM (EKVX)	inhibition at 10 µM (HCC-2998)	inhibition at 10 µM (HCT-15)	inhibition at 10 µM (HOP-62)	inhibition at 10 µM (HT29)	inhibition at 10 µM (LOX IMVI)	inhibition at 10 µM (MCF7)	inhibition at 10 µM (MDA-MB-231)	inhibition at 10 µM (MDA-MB-435)	inhibition at 10 µM (NCI-H322M)	inhibition at 10 µM (OVCAR-3)	inhibition at 10 µM (OVCAR-4)	inhibition at 10 µM (OVCAR-5)	inhibition at 10 µM (OVCAR-8)	also measured
Cc1nc(-c2ccc(Cl)cc2)ccc1NC(=O)Nc1ccc2c(c1)OCO2 [Compound 5g, 1-(Benzo[d][1,3]dioxol-5-yl)-3-(6-(4-chlorophenyl)-2-methylpyridin-3-yl)urea]	< 10%	32%	< 10%	< 10%	< 10%	< 10%	< 10%	< 10%	< 10%	< 10%	11%	34%	< 10%	< 10%	< 10%	< 10%	< 10%	< 10%	< 10%	< 10%	inhibition at 10 µM (RPMI-8226): < 10%; inhibition at 10 µM (RXF 393): < 10%; inhibition at 10 µM (SF-268): < 10%; inhibition at 10 µM (SF-295): < 10%; inhibition at 10 µM (SK-OV-3): < 10%; inhibition at 10 µM (SN12C): < 10%; inhibition at 10 µM (SNB-75): < 10%; inhibition at 10 µM (SR): 22%; inhibition at 10 µM (T-47D): < 10%; inhibition at 10 µM (TK-10): < 10%; inhibition at 10 µM (U251): < 10%; inhibition at 10 µM (UACC-62): 27%; inhibition at 10 µM (UO-31): < 10%
Cc1nc(-c2cccs2)ccc1NC(=O)Nc1ccc(F)cc1 [Compound 5h, 1-(4-Fluorophenyl)-3-(2-methyl-6-(thiophen-2-yl)pyridin-3-yl)urea]	< 10%	32%	< 10%	10%	< 10%	< 10%	< 10%	14%	26%	< 10%	12%	< 10%	22%	< 10%	< 10%	< 10%	< 10%	< 10%	< 10%	< 10%	inhibition at 10 µM (RPMI-8226): 24%; inhibition at 10 µM (RXF 393): < 10%; inhibition at 10 µM (SF-268): < 10%; inhibition at 10 µM (SF-295): < 10%; inhibition at 10 µM (SK-OV-3): < 10%; inhibition at 10 µM (SN12C): < 10%; inhibition at 10 µM (SNB-75): < 10%; inhibition at 10 µM (SR): 18%; inhibition at 10 µM (T-47D): 15%; inhibition at 10 µM (TK-10): < 10%; inhibition at 10 µM (U251): < 10%; inhibition at 10 µM (UACC-62): 18%; inhibition at 10 µM (UO-31): 13%
Cc1nc(-c2cccs2)ccc1NC(=O)Nc1ccc(Cl)cc1 [Compound 5i, 1-(4-Chlorophenyl)-3-(2-methyl-6-(thiophen-2-yl)pyridin-3-yl)urea]	< 10%	29%	< 10%	< 10%	< 10%	< 10%	< 10%	< 10%	< 10%	< 10%	< 10%	< 10%	12%	< 10%	< 10%	< 10%	< 10%	< 10%	< 10%	< 10%	inhibition at 10 µM (RPMI-8226): < 10%; inhibition at 10 µM (RXF 393): < 10%; inhibition at 10 µM (SF-268): < 10%; inhibition at 10 µM (SF-295): < 10%; inhibition at 10 µM (SK-OV-3): < 10%; inhibition at 10 µM (SN12C): < 10%; inhibition at 10 µM (SNB-75): < 10%; inhibition at 10 µM (SR): < 10%; inhibition at 10 µM (T-47D): 13%; inhibition at 10 µM (TK-10): < 10%; inhibition at 10 µM (U251): < 10%; inhibition at 10 µM (UACC-62): 19%; inhibition at 10 µM (UO-31): < 10%
CCOC(=O)c1ccc(NC(=O)Nc2ccc(-c3cccs3)nc2C)cc1 [Compound 5j, Ethyl 4-(3-(2-methyl-6-(thiophen-2-yl)pyridin-3-yl)ureido)benzoate]	12%	35%	15%	50%	< 10%	< 10%	< 10%	< 10%	30%	< 10%	19%	10%	21%	< 10%	< 10%	17%	< 10%	< 10%	< 10%	< 10%	inhibition at 10 µM (RPMI-8226): 56%; inhibition at 10 µM (RXF 393): < 10%; inhibition at 10 µM (SF-268): < 10%; inhibition at 10 µM (SF-295): < 10%; inhibition at 10 µM (SK-OV-3): < 10%; inhibition at 10 µM (SN12C): < 10%; inhibition at 10 µM (SNB-75): < 10%; inhibition at 10 µM (SR): 44%; inhibition at 10 µM (T-47D): < 10%; inhibition at 10 µM (TK-10): < 10%; inhibition at 10 µM (U251): 21%; inhibition at 10 µM (UACC-62): < 10%; inhibition at 10 µM (UO-31): < 10%
